Like-named read-outs stand apart in the source and are kept apart here.
Tests used:
PC3 = assay: Antiproliferative CCK8 assay, PC3; type: cell-based; conditions: Homo sapiens, PC-3, 72 h incubation, average of three replicates, read-out: Relative IC50 against tumor cell line PC3
Protocol: (§1) The following cell lines, MCF-7, SK-BR-3, K562, Hela, MOLT-4, DU145, U937, and PC3 were purchased from Shanghai Cell Bank, Chinese Academy of Sciences. The cells were maintained at 37 °C in a 5% CO2 incubator in DMEM (Gibco, Invitrogen, Carlsbad, CA, USA) or RPMI1640 (Gibco, Invitrogen) containing 10% FBS. Cell proliferation was determined by CCK8 assay (DOjinDo, Kyoto, Japan). Cells were seeded at a density of 800–1000 cells/well in 384 well plates and treated with solvent control or various concentration of compounds. After 72 h incubation, CCK8 reagent was added and absorbance was measured at 450 nm by using Envision 2104 multi-label Reader (Perkin Elmer, Waltham, MA, USA). Dose-response curves were plotted to determine the IC50 values using Prism 5.0 (Graph Pad software Inc., San Diego, CA, USA).

Hela = assay: Antiproliferative CCK8 assay, Hela; type: cell-based; conditions: Homo sapiens, 72 h incubation, average of three replicates, read-out: Relative IC50 against tumor cell line Hela
Protocol: as §1

DU145 = assay: Antiproliferative CCK8 assay, DU145; type: cell-based; conditions: Homo sapiens, DU-145, prostate cancer cell, 72 h incubation, average of three replicates, read-out: Relative IC50 against tumor cell line DU145
Protocol: as §1

K562 = assay: Antiproliferative CCK8 assay, K562; type: cell-based; conditions: Homo sapiens, 72 h incubation, average of three replicates, read-out: Relative IC50 against tumor cell line K562
Protocol: as §1

MOLT-4 = assay: Antiproliferative CCK8 assay, MOLT-4; type: cell-based; conditions: Homo sapiens, leukemia cell, 72 h incubation, average of three replicates, read-out: Relative IC50 against tumor cell line MOLT-4
Protocol: as §1

PI3Kα = PI3Kα (Homo sapiens, UniProt P42336); assay: PI3K enzymatic activity assay (Kinase-Glo), PI3Kα; type: biochemical
PI3Kα, sequence (P42336 whole entry, species assumed): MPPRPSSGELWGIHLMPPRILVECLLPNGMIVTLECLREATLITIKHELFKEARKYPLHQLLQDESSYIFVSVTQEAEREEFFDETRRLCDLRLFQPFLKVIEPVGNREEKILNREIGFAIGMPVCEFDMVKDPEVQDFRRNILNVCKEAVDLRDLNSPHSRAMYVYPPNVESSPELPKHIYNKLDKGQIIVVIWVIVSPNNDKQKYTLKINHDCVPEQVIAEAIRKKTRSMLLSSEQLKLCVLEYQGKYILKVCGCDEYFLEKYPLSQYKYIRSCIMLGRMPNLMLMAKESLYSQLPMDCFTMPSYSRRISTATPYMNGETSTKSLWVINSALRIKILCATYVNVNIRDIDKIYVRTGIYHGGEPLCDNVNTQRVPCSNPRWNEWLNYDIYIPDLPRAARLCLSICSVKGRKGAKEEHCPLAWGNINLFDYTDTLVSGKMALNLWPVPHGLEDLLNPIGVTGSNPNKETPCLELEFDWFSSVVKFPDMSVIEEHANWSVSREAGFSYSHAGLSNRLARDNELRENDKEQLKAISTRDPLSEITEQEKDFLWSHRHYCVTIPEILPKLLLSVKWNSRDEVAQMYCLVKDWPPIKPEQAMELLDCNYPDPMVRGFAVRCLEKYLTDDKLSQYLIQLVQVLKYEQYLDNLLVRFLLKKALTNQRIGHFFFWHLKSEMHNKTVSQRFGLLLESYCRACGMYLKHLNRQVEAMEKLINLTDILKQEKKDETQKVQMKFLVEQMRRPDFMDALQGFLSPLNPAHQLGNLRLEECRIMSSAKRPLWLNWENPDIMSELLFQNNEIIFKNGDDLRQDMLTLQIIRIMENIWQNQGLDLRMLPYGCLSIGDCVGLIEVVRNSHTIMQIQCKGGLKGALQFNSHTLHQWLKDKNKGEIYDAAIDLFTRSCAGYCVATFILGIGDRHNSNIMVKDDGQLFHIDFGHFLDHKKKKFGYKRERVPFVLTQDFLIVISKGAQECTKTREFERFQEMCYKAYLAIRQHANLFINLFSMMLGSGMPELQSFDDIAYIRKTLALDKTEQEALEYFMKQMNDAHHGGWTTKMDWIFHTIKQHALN
PI3Kα, sequence (P27986 whole entry partner, species assumed): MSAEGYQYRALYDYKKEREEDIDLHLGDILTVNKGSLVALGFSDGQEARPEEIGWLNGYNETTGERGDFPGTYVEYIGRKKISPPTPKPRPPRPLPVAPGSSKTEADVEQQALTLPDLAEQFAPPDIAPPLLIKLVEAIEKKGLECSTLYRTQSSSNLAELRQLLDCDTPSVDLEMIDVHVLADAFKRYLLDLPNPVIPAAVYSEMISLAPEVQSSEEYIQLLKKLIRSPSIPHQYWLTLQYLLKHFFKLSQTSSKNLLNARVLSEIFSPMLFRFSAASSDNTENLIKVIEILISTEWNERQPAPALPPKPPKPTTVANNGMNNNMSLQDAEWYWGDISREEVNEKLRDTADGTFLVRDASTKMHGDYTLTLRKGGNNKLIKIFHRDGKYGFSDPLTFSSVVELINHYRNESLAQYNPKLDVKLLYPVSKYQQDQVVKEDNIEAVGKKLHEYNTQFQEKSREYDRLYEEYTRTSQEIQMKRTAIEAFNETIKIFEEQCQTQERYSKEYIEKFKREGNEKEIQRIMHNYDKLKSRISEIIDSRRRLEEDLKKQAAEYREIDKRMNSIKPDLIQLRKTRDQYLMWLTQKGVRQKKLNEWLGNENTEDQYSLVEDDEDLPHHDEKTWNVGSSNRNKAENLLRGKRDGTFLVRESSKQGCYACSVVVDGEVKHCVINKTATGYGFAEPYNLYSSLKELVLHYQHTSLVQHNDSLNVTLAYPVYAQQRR
Protocol: (§2) We assumed that electronic effects might influence the inhibitory activity of compounds against PI3Kα. […] PI3K reactions were performed in 50 mM HEPES at pH 7.5 with 1 mM EGTA, 100 mM NaCl, 3 mM MgCl2, 2 mM DTT, and 0.03% CHAPS. All tested compounds were dissolved in 100% DMSO. PIP2 and ATP were used as substrates, and the final reaction volume was 10 μL. […] After incubating for 1 h at room temperature, the reactions were quenched by adding 10 μL of Kinase-Glo reagent. Raw data were collected from Flexstation program.

SK-BR-3 = assay: Antiproliferative CCK8 assay, SK-BR-3; type: cell-based; conditions: Homo sapiens, 72 h incubation, average of three replicates, read-out: Relative IC50 against tumor cell line SK-BR-3
Protocol: as §1

MCF-7 = assay: Antiproliferative CCK8 assay, MCF-7; type: cell-based; conditions: Homo sapiens, MCF7, 72 h incubation, average of three replicates, read-out: Relative IC50 against tumor cell line MCF-7
Protocol: as §1

U937 = assay: Antiproliferative CCK8 assay, U937; type: cell-based; conditions: Homo sapiens, U-937, leukemia cell, 72 h incubation, average of three replicates, read-out: Relative IC50 against tumor cell line U937
Protocol: as §1

PI3Kβ = PI3Kβ (Homo sapiens, UniProt P42338); assay: PI3K enzymatic activity assay, PI3Kβ; type: biochemical
PI3Kβ, sequence (P42338 whole entry, species assumed): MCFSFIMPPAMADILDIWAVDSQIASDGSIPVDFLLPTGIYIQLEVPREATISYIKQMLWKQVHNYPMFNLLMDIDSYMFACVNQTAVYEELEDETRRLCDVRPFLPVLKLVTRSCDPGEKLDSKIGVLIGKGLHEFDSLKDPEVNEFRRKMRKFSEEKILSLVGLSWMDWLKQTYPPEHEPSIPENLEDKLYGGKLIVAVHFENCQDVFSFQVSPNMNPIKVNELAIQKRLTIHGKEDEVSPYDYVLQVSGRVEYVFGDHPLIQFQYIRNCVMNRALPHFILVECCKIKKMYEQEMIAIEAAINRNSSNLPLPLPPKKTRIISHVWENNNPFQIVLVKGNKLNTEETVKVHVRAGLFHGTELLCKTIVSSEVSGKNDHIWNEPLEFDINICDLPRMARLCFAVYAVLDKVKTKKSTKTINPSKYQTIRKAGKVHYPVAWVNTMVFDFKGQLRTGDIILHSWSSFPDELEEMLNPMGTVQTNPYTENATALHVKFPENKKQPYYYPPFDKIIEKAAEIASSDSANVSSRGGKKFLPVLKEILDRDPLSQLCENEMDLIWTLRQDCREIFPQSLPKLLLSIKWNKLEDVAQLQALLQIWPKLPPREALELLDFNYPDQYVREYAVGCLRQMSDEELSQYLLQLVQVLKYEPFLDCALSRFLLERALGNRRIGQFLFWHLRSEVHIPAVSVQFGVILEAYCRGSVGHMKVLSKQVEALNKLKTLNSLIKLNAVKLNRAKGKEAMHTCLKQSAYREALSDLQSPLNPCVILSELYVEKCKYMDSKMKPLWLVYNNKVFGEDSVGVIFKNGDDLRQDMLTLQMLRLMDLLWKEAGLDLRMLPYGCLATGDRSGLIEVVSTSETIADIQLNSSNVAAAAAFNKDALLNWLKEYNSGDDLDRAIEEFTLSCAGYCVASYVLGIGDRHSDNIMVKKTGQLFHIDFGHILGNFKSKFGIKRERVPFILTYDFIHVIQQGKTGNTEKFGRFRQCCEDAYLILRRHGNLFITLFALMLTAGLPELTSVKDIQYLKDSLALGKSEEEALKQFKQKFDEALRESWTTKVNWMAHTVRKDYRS
PI3Kβ, sequence (P27986 whole entry partner, species assumed): as the sequence (P27986 whole entry partner, species assumed) above
Protocol: as §2

PI3Kγ = PI3Kγ (Homo sapiens, UniProt P48736); assay: PI3K enzymatic activity assay, PI3Kγ; type: biochemical
PI3Kγ, sequence (P48736 whole entry, species assumed): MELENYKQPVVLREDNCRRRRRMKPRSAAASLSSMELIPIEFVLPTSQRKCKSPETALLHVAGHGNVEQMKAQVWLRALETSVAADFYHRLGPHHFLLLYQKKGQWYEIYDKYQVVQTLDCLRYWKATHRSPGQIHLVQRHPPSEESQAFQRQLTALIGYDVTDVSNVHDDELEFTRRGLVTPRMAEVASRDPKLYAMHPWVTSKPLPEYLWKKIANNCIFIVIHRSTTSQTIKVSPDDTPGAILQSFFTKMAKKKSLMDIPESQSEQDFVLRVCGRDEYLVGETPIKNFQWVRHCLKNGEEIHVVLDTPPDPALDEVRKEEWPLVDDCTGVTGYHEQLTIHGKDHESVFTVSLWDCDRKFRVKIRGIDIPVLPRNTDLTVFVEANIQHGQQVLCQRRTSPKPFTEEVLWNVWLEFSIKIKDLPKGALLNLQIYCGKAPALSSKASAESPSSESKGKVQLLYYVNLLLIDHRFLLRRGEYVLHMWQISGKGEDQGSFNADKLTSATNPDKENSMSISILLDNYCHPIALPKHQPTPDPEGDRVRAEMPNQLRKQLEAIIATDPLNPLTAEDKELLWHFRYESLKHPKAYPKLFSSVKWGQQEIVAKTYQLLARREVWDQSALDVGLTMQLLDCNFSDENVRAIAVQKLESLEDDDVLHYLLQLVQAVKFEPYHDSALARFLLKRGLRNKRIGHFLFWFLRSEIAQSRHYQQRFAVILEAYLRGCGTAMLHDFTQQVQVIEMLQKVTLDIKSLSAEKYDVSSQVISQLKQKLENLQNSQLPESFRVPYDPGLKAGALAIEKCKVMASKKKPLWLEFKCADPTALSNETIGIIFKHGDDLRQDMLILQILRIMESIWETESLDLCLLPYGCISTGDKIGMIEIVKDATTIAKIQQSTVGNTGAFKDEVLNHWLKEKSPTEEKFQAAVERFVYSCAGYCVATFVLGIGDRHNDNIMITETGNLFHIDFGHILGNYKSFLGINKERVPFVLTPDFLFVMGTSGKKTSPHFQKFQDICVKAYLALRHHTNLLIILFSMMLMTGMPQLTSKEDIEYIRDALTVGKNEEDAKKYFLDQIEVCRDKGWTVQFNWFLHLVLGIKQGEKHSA
Protocol: as §2

PI3Kδ = PI3Kδ (Homo sapiens, UniProt O00329); assay: PI3K enzymatic activity assay, PI3Kδ; type: biochemical
PI3Kδ, sequence (O00329 whole entry, species assumed): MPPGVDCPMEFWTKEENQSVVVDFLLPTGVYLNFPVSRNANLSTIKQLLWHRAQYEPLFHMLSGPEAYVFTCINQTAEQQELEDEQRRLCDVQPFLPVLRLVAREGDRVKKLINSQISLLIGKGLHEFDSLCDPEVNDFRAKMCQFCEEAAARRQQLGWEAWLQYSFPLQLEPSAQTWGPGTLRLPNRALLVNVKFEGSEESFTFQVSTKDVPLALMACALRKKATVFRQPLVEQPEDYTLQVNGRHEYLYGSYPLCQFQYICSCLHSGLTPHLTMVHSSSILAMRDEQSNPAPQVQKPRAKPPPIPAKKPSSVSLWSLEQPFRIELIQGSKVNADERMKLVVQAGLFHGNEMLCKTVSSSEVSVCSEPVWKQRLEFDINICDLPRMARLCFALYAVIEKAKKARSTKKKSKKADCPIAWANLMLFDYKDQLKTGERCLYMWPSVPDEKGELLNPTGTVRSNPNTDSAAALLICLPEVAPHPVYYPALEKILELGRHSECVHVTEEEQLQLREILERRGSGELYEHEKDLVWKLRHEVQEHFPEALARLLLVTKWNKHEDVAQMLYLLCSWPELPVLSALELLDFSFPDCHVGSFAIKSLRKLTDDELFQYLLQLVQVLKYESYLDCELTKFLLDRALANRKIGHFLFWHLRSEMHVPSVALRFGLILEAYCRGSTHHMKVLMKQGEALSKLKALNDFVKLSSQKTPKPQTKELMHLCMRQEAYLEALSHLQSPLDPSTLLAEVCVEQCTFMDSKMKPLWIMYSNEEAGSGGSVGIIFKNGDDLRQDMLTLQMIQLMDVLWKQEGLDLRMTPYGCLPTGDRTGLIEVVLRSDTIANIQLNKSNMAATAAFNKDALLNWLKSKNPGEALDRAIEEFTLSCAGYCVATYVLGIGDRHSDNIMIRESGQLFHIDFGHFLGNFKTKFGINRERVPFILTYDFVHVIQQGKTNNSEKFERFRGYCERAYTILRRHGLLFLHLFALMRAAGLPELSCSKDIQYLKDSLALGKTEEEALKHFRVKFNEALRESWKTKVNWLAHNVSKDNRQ
PI3Kδ, sequence (P27986 whole entry partner, species assumed): as the sequence (P27986 whole entry partner, species assumed) above
Protocol: as §2

[1] = average of three replicates, 25 μM ATP, 50 μM PIP2, 1 h, room temperature, read-out: IC50, inhibition against PI3Kα

Row | Structure (SMILES) | IC50 (PC3) | IC50 (Hela) | IC50 (DU145) | IC50 (K562) | IC50 (MOLT-4) | IC50 (PI3Kα) | IC50 (SK-BR-3) | IC50 (MCF-7) | IC50 (U937) | IC50 (PI3Kα; [1]) | IC50 (PI3Kβ) | IC50 (PI3Kγ) | IC50 (PI3Kδ)
1 | COC(=O)c1cc(O)c(O)c2c1[C@]1(C)CC[C@H]3C(C)(C)CCC[C@]3(C)[C@H]1C2 [Compound 1, Pelorol] | > 30 µM | > 30 µM | 72.7 µM | > 30 µM | > 30 µM | 38.2 µM | > 30 µM | > 30 µM | > 30 µM |  |  |  | 
2 | CC1(C)CCC[C@]2(C)[C@H]3Cc4c(O)c(O)cc(C(=O)O)c4[C@]3(C)CC[C@@H]12 [Compound 2, (4aS,6aR,11aR,11bS)-9,10-diHydroxy-4,4,6a,11b-tetramethyl-2,3,4,4a,5,6,6a,11,11a,11b-decahydro-1H-benzo[a]fluorene-7-carboxylic acid] | > 30 µM |  | > 30 µM | > 30 µM |  |  |  | > 30 µM |  | 20.7 µM |  |  | 
3 | CC(=O)c1cc(O)c(O)c2c1[C@]1(C)CC[C@H]3C(C)(C)CCC[C@]3(C)[C@H]1C2 [Compound 3, 1-((4aS,6aR,11aR,11bS)-9,10-diHydroxy-4,4,6a,11b-tetramethyl-2,3,4,4a,5,6,6a,11,11a,11b-decahydro-1H-benzo[a]fluoren-7-yl)ethanone] | > 30 µM | > 30 µM | > 30 µM | > 30 µM | 22.3 µM |  | > 30 µM | > 30 µM | > 30 µM | 8.76 µM |  |  | 
4 | CCc1cc(O)c(O)c2c1[C@]1(C)CC[C@H]3C(C)(C)CCC[C@]3(C)[C@H]1C2 [Compound 4, (4aS,6aR,11aR,11bS)-7-Ethyl-4,4,6a,11b-tetramethyl-2,3,4,4a,5,6,6a,11,11a,11b-decahydro-1H-benzo [a]fluorene-9,10-diol] | > 30 µM | > 30 µM | > 30 µM | > 30 µM | > 30 µM |  | > 30 µM | > 30 µM | > 30 µM | 83.7 µM |  |  | 
5 | CC1(C)CCC[C@]2(C)[C@H]3Cc4c(O)c(O)cc(C=O)c4[C@]3(C)CC[C@@H]12 [Compound 5, (4aS,6aR,11aR,11bS)-9,10-diHydroxy-4,4,6a,11b-tetramethyl-2,3,4,4a,5,6,6a,11,11a,11b-decahydro-1H-benzo[a]fluorene-7-carbaldehyde] | 18.4 µM | 13.2 µM | 9.01 µM | 16.1 µM | 4.27 µM |  | 19.1 µM | 38.9 µM | 5.99 µM | 5.06 µM | 8.9 µM | > 100 µM | > 100 µM
6 | CC1(C)CCC[C@]2(C)[C@H]3Cc4c(O)c(O)cc(C#N)c4[C@]3(C)CC[C@@H]12 [Compound 6, (4aS,6aR,11aR,11bS)-9,10-diHydroxy-4,4,6a,11b-tetramethyl-2,3,4,4a,5,6,6a,11,11a,11b-decahydro-1H-benzo[a]fluorene-7-carbonitrile] | > 30 µM | 12.1 µM | 8.13 µM | > 30 µM | 2.89 µM |  | > 30 µM | 16.5 µM | 12.8 µM | 49.5 µM |  |  | 
7 | CCc1cc(OC)c(OC)c2c1[C@]1(C)CC[C@H]3C(C)(C)CCC[C@]3(C)[C@H]1C2 [Compound 20, (4aS,6aR,11aR,11bS)-7-Ethyl-9,10-diMethoxy-4,4,6a,11b-tetramethyl-2,3,4,4a,5,6,6a,11,11a,11b-decahydro-1H-benzo[a]fluorene] |  |  |  |  |  |  |  |  |  | > 100 µM |  |  | 

Reference: article PMC4926077, “Synthesis of Pelorol and Its Analogs and Their Inhibitory Effects on Phosphatidylinositol 3-Kinase” (Marine Drugs, 2016)
